Test results published in patent publication US9884031B2, “Use of HDAC inhibitors for treatment of cardiac rhythm disorders” (THE TRUSTEES OF THE UNIVERSITY OF PENNSYLVANIA, priority 2007, dated 2018).
“Also recorded” adds a separate entry of the source. Marks after values point to notes of the source that are not given here.

Columns and labels:
[1] = test system: Hop transgenic mice (Hop^Tg); assay: In-vivo electrophysiology study: inducible arrhythmias by programmed electrical stimulation; design: species or system mouse
Method: An in-vivo electrophysiology study was performed in each mouse to assess atrial and ventricular conduction, refractoriness, and arrhythmia inducibility. Surface ECG recordings and complete in vivo electrophysiological studies (EPS) were obtained from Hop^Tg mice (14-18 weeks old), age-matched non-transgenic littermates and TSA-treated Hop^Tg mice. Each mouse was anesthetized with pentobarbital ([…] IP), and multi-lead ECGs were obtained using 26-gauge subcutaneous electrodes. Temperature was maintained at 32-33° C. A jugular vein cutdown was performed and an octapolar 2-French electrode catheter (CIBer mouse-EP; NuMED, Inc) placed in the right atrium and ventricle under electrogram guidance to confirm catheter position. A programmed digital stimulator (DTU-215A, Bloom Associates Ltd) was used to deliver electrical impulses at approximately twice diastolic threshold. […] ECG channels were filtered from 0.5 to 250 Hz and intracardiac electrograms were filtered from 5 to 400 Hz. ECG intervals were measured by two independent observers blinded to the animal's genotype.
The PR, QRS, RR, and QT intervals were measured in 6 surface-limb ECG leads by 2 independent observers, who were both blinded to the animals' genotype. Intracardiac recordings were obtained during identical pacing and programmed electrical stimulation protocols for all mice by experienced investigators.
Trichostatin A 0.6 mg/kg daily in a volume of 0.2 mL was given by intraperitoneal injection for 14 consecutive days prior to cardiac electrical stimulation in Hop transgenic mice (Hop^Tg) compared with wild-type controls (WT).
Ventricular programmed electrical stimulation induced similar numbers and durations of ventricular tachycardia in 3 of 11 Hop^Tg mice compared to 4 of 12 control mice (P=NS).

[2] = test system: Hop transgenic mice (Hop^Tg); assay: Invasive hemodynamic measurements; type: in vivo, mouse; conditions: for Effect upon LVEDP, systolic contraction (peak positive dP/dt) and diastolic relaxation (peak negative dP/dt), in words: TSA-Hop^Tg vs Hop^Tg, treatment initiated at 12-14 weeks of age
Method: Hop^Tg mice 14-18 weeks old were compared with wild-type littermates and TSA treated Hop^Tg mice. Anesthesia was induced with 3% isoflurane and maintained by ventilation with 0.75% isoflurane. Temperature was maintained at 36-37° C. Intracardiac pressures were recorded using a 1.4 French micromanometer catheter (Micro-Tip SPR-671; Millar Instruments) that was zeroed prior to making measurements on each animal in a saline bath. The catheter was inserted via the right carotid artery to record intracardiac pressures and digitized at 2-kHz using a PowerLab/16 SP A/D converter (ADInstruments Ltd.).
(§1) Trichostatin A 0.6 mg/kg daily in a volume of 0.2 mL was given by intraperitoneal injection for 14 consecutive days upon inducible atrial arrhythmias and atrial structurally remodeling in an engineered mouse model with left ventricular hypertrophy and inducible atrial fibrillation. Transgenic mice over-expressing the homeodomain-only protein (Hop^Tg), which promotes cardiac hypertrophy and interstitial fibrosis, were divided into three groups: control, Hop^Tg mice and Hop^Tg mice treated with trichostatin A.
(§2) Hop^Tg mice had higher left ventricular end-diastolic pressure (LVEDP), and reduced peak systolic contraction and diastolic relaxation compared to WT mice. However, trichostatin A had no effect upon the LVEDP, systolic contraction or diastolic relaxation when treatment was initiated in animals aged 12-14 weeks of age. These parameters were similar between Hop^Tg and TSA-Hop^Tg mice, though still abnormal when compared to WT mice. In addition, the heart weight to tibia length ratio (HW/TL) was higher in Hop^Tg and TSA-Hop^Tg mice compared to WT, but there was no difference in the HW/TL between Hop^Tg and TSA-Hop^Tg mice. *P<0.05 compared to WT; ^†P<0.05 compared to TSA-Hop^Tg.

[3] = test system: Hop transgenic mice (HopX^Tg); assay: Morphometric analysis of hearts (heart weight, atrial weight ratios); type: in vivo, mouse; conditions: for Heart weight to tibia length ratio (HW/TL), in words: TSA-Hop^Tg vs Hop^Tg mice
Method: as §1, §2

HopX^Tg mice = assay: Echocardiographic analysis of ventricular structure and function; type: in vivo, mouse
Method: To better characterize the effects of TSA upon ventricular structure and function, echocardiographic analysis of HopX^Tg, TSA-HopX^Tg and WT mice was performed. […] However, TSA had no effect upon these parameters as ventricular wall thickness and systolic function were similar between HopX^Tg and TSA-HopX^Tg mice (Table 4), consistent with the hemodynamic analysis of these animals.

[4] = test system: Hop transgenic mice (Hop^Tg); assay: Masson's trichrome staining for collagen as marker of fibrosis; type: in vivo, mouse; conditions: FIG. 1; for Atrial fibrosis (in words): TSA-treated Hop transgenic mice vs untreated
Method: Hearts were excised from, washed in 37° C. Dulbecco's 1×PBS, arrested in 50 mmol/L KCl, and fixed in 4% formalin. Fixed hearts were cut transversely and sectioned serially from ventricular apex to base. Two sections (5 μm each) were retained at the beginning of each 50-μm step. Sections were stained with Masson's trichrome stain for collagen as a marker of fibrosis. Quantification of the proportion of fibrosis in each heart was then performed with scientific imaging software (Image-J, National Institutes of Health)) and high-resolution serial scanning technique. Histological sections from the entire left ventricle and both atrium were used for analysis from three different hearts.
as §1

activated TGF-β1 = assay: Western blot of atrium: activated TGF-β1; type: in vivo, mouse; conditions: TSA-Hop^Tg mice relative to Hop^Tg, FIG. 2E
Method: (§3) Adult mouse atrium and ventricle were dissected and homogenized in buffer containing 1% Igepal surfactant, 0.5% deoxycholate sodium, 2% SDS, 5 mmol EDTA (pH=7.4), 1% protease inhibitor cocktail tablet (Roche) with and without phosphatase inhibitor cocktail (Sigma-Aldrich). Samples were cleared of debris by centrifugation at 5000 g for 10 min. and the protein concentration was determined using a BCA protein assay kit (Pierce). Protein samples were run on a 4-12% gradient pre-cast SDS-PAGE gel (Invitrogen), and after electrophoresis were transferred onto PVDF membranes (Millipore) using 0.1% acetic acid/10% methanol as a transfer buffer. Membranes were incubated with primary antibodies in 5% milk and PBS overnight at 4° C. and then washed for 5 min, 4 times with TBS-T solution. […] Results were visualized by enhanced chemiluminescence using a commercially available kit (Western Breeze, Invitrogen) and data were recorded on BioMax-MR film (Kodak, Rochester, N.Y.). Densitometry was determined using the Image-J software package (National Institutes of Health). […]

phospho-ERK1/2 = assay: Western blot of atrium: phospho-ERK1/2; type: in vivo, mouse; conditions: TSA-Hop^Tg mice relative to Hop^Tg, FIG. 2D
Method: as §3

phospho-JNK = assay: Western blot of atrium: phospho-JNK; type: in vivo, mouse; conditions: between Hop^Tg, TSA-Hop^Tg or control mice, FIG. 2B
Method: as §3

phospho-p38-MAPK = assay: Western blot of atrium: phospho-p38-MAPK; type: in vivo, mouse; conditions: between Hop^Tg, TSA-Hop^Tg or control mice, FIG. 2C
Method: as §3

connexin40 = assay: Immunoblot analysis of atrial connexin40; type: in vivo, mouse; conditions: TSA-treated Hop transgenic mice, FIG. 3A
Method: as §3

connexin43 = assay: Immunoblot analysis of atrial connexin43; type: in vivo, mouse; conditions: WT, Hop and TSA-Hop mice, FIG. 3B
Method: as §3

[5] = test system: connexin40 and connexin43; assay: Distribution of atrial connexins (quantitative confocal immunodetection); type: in vivo, mouse; conditions: TSA-treated Hop^Tg mice
Method: Mice were heparizined, anesthetized with pentobarbital […] and hearts excised through a sternotomy. Hearts were mounted on a Langendorf apparatus, perfused with Tyrode's solution (composition as in Ref. 21) at 3.0-3.5 milliliter [ml]/minute [min] at a temperature of 36°-37° C. Hearts were perfused with Ca^2+-free Tyrode's solution for 6 min., followed by 12-15 min. of perfusion with Ca^2+-free Tyrode's solution containing: collagenase B, collagenase D (Roche Chemical Co.) and protease (Fraction IV, Sigma Chemical Co.). […]
The area of immunoreactive signal in discrete spots from isolated atrial myocytes was quantified using laser scanning confocal microscopy. Scanning of single optical slices (<1 μm) by confocal laser scanning microscopy was done on the Leica TCS SP2 system using the spectral detection set for simultaneous fluorescence imaging of Alexa488 and DIC imaging with transmitted light to obtain the cell outline. […] Areas were quantified using the count nuclei application in the Metamorph software package (Molecular Devices). The total area of each atrial myocyte was calculated from the DIC images and the area of the connexin immunoreactive spots was calculated from the Alexa488 fluorescent images.

3 week-old HopX^Tg mice = conditions: cited from earlier work
histone acetylation = conditions: TSA 0.6 mg/kg/day, previous studies; cited from earlier work
[6] = test system: models of pressure-overload and angiotensin-induced hypertrophy; conditions: cited from earlier work
[7] = TSA 0.6 mg/kg daily IP 14 days, Hop^Tg mice
[8] = TSA 0.6 mg/kg daily IP 14 days, Hop^Tg mice, n = 10
[9] = TSA 0.6 mg/kg daily IP 14 days, Hop^Tg mice, n = 10, mean±SD
[10] = TSA 0.6 mg/kg daily IP 14 days, Hop^Tg mice, n = 8, mean±SD
[11] = TSA 0.6 mg/kg daily IP 14 days, HopX^Tg mice, n = 13, mean±SD
[12] = TSA-treated HopX^Tg mice, n = 4, echocardiography

CC(/C=C/C(=O)NO)=C\[C@@H](C)C(=O)c1ccc(N(C)C)cc1 [TSA, Trichostatin A]
Mice with AT [1, 7]: 2/15
Mice with VT [1, 7]: 2/15
Episodes AT (atrial tachycardia) [1, 8]: 5
Episodes VT (ventricular tachycardia) [1, 8]: 4
AT CL (atrial tachycardia cycle length) [1, 9]: 47.0 ± 7.2 ms
Duration AT [1, 9]: 0.148 ± 0.110 s
Duration VT [1, 9]: 0.89 ± 1.07 s
VT CL (ventricular tachycardia cycle length) [1, 9]: 50.4 ± 8.6 ms
Mice in which atrial programmed electrical stimulation induced atrial arrhythmia ([1]; TSA-Hop^Tg mice vs 9 of 11 Hop^Tg mice, P<0.01): 2 of 10
Mice in which ventricular programmed electrical stimulation induced ventricular tachycardia ([1]; TSA-Hop^Tg mice vs Hop^Tg mice, P<0.05): 2 of 10
Atrial arrhythmia inducibility (in words) ([1]; TSA-treated Hop transgenic mice vs untreated): complete reversal of atrial arrhythmia inducibility
Duration and episodes of atrial fibrillation (in words) ([1]; TSA-treated Hop^Tg mice vs untreated): reduced
Heart rate [2, 10]: 392 ± 63.5 bpm
LV end diastolic pressure [2, 10]: 7.2 ± 2.4* mmHg
LV systolic pressure [2, 10]: 90.6 ± 8.8 mmHg
Peak negative dP/dt [2, 10]: −2267 ± 1320* mmHg/s
Peak positive dP/dt [2, 10]: 6465 ± 1613 mmHg/s
Effect upon LVEDP, systolic contraction (peak positive dP/dt) and diastolic relaxation (peak negative dP/dt), in words [2]: no significant changes
Effect upon LVEDP, systolic contraction (peak positive dP/dt) and diastolic relaxation (peak negative dP/dt), in words ([2]; listed as trichostatin A): no effect
Heart weight [3, 11]: 192.8 ± 15.5* mg
Heart weight/body weight [3, 11]: 7.4 ± 0.67* mg/g
Heart weight to tibia length ratio (HW/TL), in words ([3]; 14-18 week-old): no significant changes; also recorded: no change
Heart weight to tibia length ratio (HW/TL), in words ([3]; 14-18 week-old, listed as trichostatin A): no difference
Atrial weight/tibial length ratio (AW/TL), in words ([3]; TSA-treated HopX^Tg vs HopX^Tg mice, 14-18 week-old): no significant changes; also recorded: no change
Ventricular wall thickness and systolic function, in words (HopX^Tg mice; TSA-HopX^Tg vs HopX^Tg mice, echocardiography): no effect
Intra-ventricle Septum (HopX^Tg mice; [12]): 1.13 ± 0.18 mm
LV Ejection Fraction (HopX^Tg mice; [12]): 87.7 ± 7.00 %
LV Fractional Shortening (HopX^Tg mice; [12]): 53.9 ± 0.50 %
Left Ventricle Posterior Wall (HopX^Tg mice; [12]): 1.10 ± 0.14 mm
Left ventricular wall dimensions, in words (HopX^Tg mice; older 14-18 week-old HopX^Tg mice treated with TSA): no change
Atrial fibrosis (in words) ([4]; listed as Trichostatin A): reduced
Atrial fibrosis (in words) ([4]; listed as trichostatin A): complete reversal of atrial fibrosis
Ventricular interstitial fibrosis (in words) ([4]; three groups incl. TSA-Hop): no obvious ventricular interstitial fibrosis
Activated TGF-β1 protein expression in atrium (activated TGF-β1): further decreased
Phospho-ERK1/2 protein expression in atrium (phospho-ERK1/2): increased
Phospho-JNK protein expression in atrium (phospho-JNK): not different
Phospho-p38-MAPK protein expression in atrium (phospho-p38-MAPK): not different
Atrial connexin40 expression (connexin40): normalized
Atrial connexin43 expression (connexin43): no changes
Distribution of connexin40 and connexin43 in the atrium [5]: restored
Cardiac hypertrophy, in words (3 week-old HopX^Tg mice): partially reduces
Histone acetylation in the heart, in words (histone acetylation): does augment histone acetylation
Myocardial mechanical function, in words [6]: improve
